From patent publication US20210163976A1, “GENETICALLY ALTERED PLANTS EXPRESSING HETEROLOGOUS RECEPTORS THAT RECOGNIZE LIPO-CHITOOLIGOSACCHARIDES” (Aarhus Universitet, priority 2018, published 2021)

What was measured:
[1] = biological target: T1, Medicago truncatula NFP ectodomain (NFP-ECD, residues 28-246), wild type, SEQ ID NO: 1 (Medicago truncatula, UniProt Q0GXS4); test: Microscale thermophoresis (MST) binding of NFP to carbohydrate ligands
T1 construct: The Medicago truncatula NFP ectodomain (residues 28-246); AcMNPV gp67 signal peptide (replaces native signal peptide 1-27) (N); hexa-histidine tag (C); made in house; host or cells: Sf9 cells (Spodoptera frugiperda), baculovirus
Experimental: Expression and purification of Medicago NFP ectodomain: The Medicago truncatula NFP ectodomain (residues 28-246) was codon-optimized for insect cell expression (Genscript, Piscataway, USA) and cloned into the pOET4 baculovirus transfer vector (Oxford Expression Technologies). The native NFP signal peptide (residues 1-27, predicted by SignalP 4.1) was replaced with the AcMNPV gp67 signal peptide to facilitate secretion and a hexa-histidine tag was added to the C-terminus. Point mutants of NFP were engineered using site-directed mutagenesis. Recombinant baculoviruses were produced in Sf9 cells (Spodoptera frugiperda) using the FlashBac Gold kit (Oxford Expression technologies) according to the manufacturer's instructions with Lipofectin (ThermoFisher Scientific) as a transfection reagent. Protein expression was performed as follows. Suspension-cultured Sf9 cells were maintained with shaking at 299 K in serum-free MAX-XP (BD-Biosciences, discontinued) or HyClone SFX (GE Healthcare) medium supplemented with 1% Pen-Strep (10000 U/ml, Life technologies) and 1% CD lipid concentrate (Gibco). Protein expression was induced by adding recombinant passage 3 virus once the Sf9 cells reached a cell density of 1.0*10^7^6 cells/ml. After 5-7 days of expression, medium supernatant containing NFP ectodomains was harvested by centrifugation. This was followed by an overnight dialysis step against 50 mM Tris-HCl pH 8, 200 mM NaCl at 277 K. The NFP ectodomain was enriched by two subsequent steps of Ni-IMAC purification (HisTrap excel/HisTrap HP, both GE Healthcare). For crystallography experiments, N-glycans were removed using the endoglycosidase PNGase F (1:15 (w/w), room temperature, overnight). As a final purification step, NFP ectodomain was purified by SEC on a Superdex 200 10/300 or HiLoad Superdex 200 16/600 (both GE Healthcare) in phosphate buffered saline at pH 7.2 supplemented to a total of 500 mM NaCl (for binding assays) or 50 mM Tris-HCl, 200 mM NaCl (for crystallography). NFP ectodomain elutes as a single, homogeneous peak corresponding to a monomer. […]

[2] = biological target: T2, NFP L147D L154D ectodomain (Medicago truncatula, UniProt Q0GXS4, L147D/L154D); test: BLI binding of hydrophobic patch mutant NFP-ECD to S. meliloti LCO-IV
T2 construct: The Medicago truncatula NFP ectodomain (residues 28-246) was codon-optimized; AcMNPV gp67 signal peptide (replaces native signal peptide 1-27) (N); made in house; host or cells: Sf9 (Spodoptera frugiperda), baculovirus, secreted into medium
Source text: (§1) Creation of NFP point mutations: The NFP leucine residues L147 and L154 were replaced with aspartate residues. Aspartate is similar in size to leucine, but negatively charged where leucine is hydrophobic. Point mutants of NFP were engineered using site-directed mutagenesis. In particular, a double-mutated NFP was engineered where the leucine residues L147 and L154 were replaced with aspartate residues to create the mutant NFP L147D L154D. Point mutated versions of NFP were expressed and purified as described in Example 1.
(§2) NFP mutant binding assays: The binding assay using NFP wild type (WT) protein was replicated seven times, while the binding assay using the NFP mutant NFP L147D L154D was replicated four times.
Biolayer interferometry (BLI): Binding of NFP WT and NFP L147D/L154D mutant to S. meliloti LCO-IV was measured on an Octet RED 96 system (Pall ForteBio). S. meliloti LCO consists of a tetrameric/pentameric N-acetylglucosamine backbone that is O-sulfated on the reducing terminal residue, 0-acetylated on the non-reducing terminal residue, and mono-N-acylated by unsaturated C16 acyl groups. Biotinylated ligand conjugates were immobilized on streptavidin biosensors (kinetic quality, Pall ForteBio) at a concentration of 125-250 nM for 5 minutes. The binding assays were replicated 7 times for the NFP WT, and 4 times for the NFP L147D/L154D mutant. Data analysis was performed in GraphPad Prism 6 software (GraphPad Software, Inc.). Equilibrium dissociation constants derived from the steady-state were determined by applying a non-linear regression (one site, specific binding) to the response at equilibrium plotted against the protein concentration. Kinetic parameters were determined by non-linear regression (association followed by dissociation) on the subtracted data. Binding ofA. thaliana CERK1 (AtCERK1) to chitopentaose (C05) and chitooctaose (C08) was measured in the same way.

[3] = biological target: T3, Medicago truncatula NFP ectodomain (NFP-ECD) variant L147D/L154D (parent SEQ ID NO: 1) (Medicago truncatula, UniProt Q0GXS4, L147D/L154D); test: Biolayer interferometry (BLI) binding of hydrophobic patch mutant NFP L147D/L154D to S. meliloti LCO-IV
T3 construct: The Medicago truncatula NFP ectodomain (residues 28-246); AcMNPV gp67 signal peptide (replaces native signal peptide 1-27) (N); hexa-histidine tag (C); made in house; host or cells: Sf9 cells (Spodoptera frugiperda), baculovirus
Experimental: Expression and purification of Medicago NFP ectodomain: The Medicago truncatula NFP ectodomain (residues 28-246) was codon-optimized for insect cell expression (Genscript, Piscataway, USA) and cloned into the pOET4 baculovirus transfer vector (Oxford Expression Technologies). The native NFP signal peptide (residues 1-27, predicted by SignalP 4.1) was replaced with the AcMNPV gp67 signal peptide to facilitate secretion and a hexa-histidine tag was added to the C-terminus. Point mutants of NFP were engineered using site-directed mutagenesis. Recombinant baculoviruses were produced in Sf9 cells (Spodoptera frugiperda) using the FlashBac Gold kit (Oxford Expression technologies) according to the manufacturer's instructions with Lipofectin (ThermoFisher Scientific) as a transfection reagent. Protein expression was performed as follows. Suspension-cultured Sf9 cells were maintained with shaking at 299 K in serum-free MAX-XP (BD-Biosciences, discontinued) or HyClone SFX (GE Healthcare) medium supplemented with 1% Pen-Strep (10000 U/ml, Life technologies) and 1% CD lipid concentrate (Gibco). Protein expression was induced by adding recombinant passage 3 virus once the Sf9 cells reached a cell density of 1.0*10^7^6 cells/ml. After 5-7 days of expression, medium supernatant containing NFP ectodomains was harvested by centrifugation. This was followed by an overnight dialysis step against 50 mM Tris-HCl pH 8, 200 mM NaCl at 277 K. The NFP ectodomain was enriched by two subsequent steps of Ni-IMAC purification (HisTrap excel/HisTrap HP, both GE Healthcare). For crystallography experiments, N-glycans were removed using the endoglycosidase PNGase F (1:15 (w/w), room temperature, overnight). As a final purification step, NFP ectodomain was purified by SEC on a Superdex 200 10/300 or HiLoad Superdex 200 16/600 (both GE Healthcare) in phosphate buffered saline at pH 7.2 supplemented to a total of 500 mM NaCl (for binding assays) or 50 mM Tris-HCl, 200 mM NaCl (for crystallography). NFP ectodomain elutes as a single, homogeneous peak corresponding to a monomer. Point mutated versions of NFP were expressed and purified following the same protocol.
as §1, §2
Biolayer interferometry (BLI): Binding of NFP WT and NFP L147D/L154D mutant to S. meliloti LCO-IV was measured on an Octet RED 96 system (Pall ForteBio). […] Equilibrium dissociation constants derived from the steady-state were determined by applying a non-linear regression (one site, specific binding) to the response at equilibrium plotted against the protein concentration. Kinetic parameters were determined by non-linear regression (association followed by dissociation) on the subtracted data. […]

T3 sequence (Q0GXS4 28-246 L147D/L154D): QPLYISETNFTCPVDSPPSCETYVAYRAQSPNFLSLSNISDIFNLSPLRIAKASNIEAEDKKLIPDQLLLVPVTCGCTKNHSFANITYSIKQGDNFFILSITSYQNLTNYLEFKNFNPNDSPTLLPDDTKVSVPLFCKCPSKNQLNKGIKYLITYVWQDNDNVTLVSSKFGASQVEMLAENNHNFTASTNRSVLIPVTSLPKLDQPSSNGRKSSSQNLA
T2 sequence (Q0GXS4 28-246 L147D/L154D): as above
T1 sequence (Q0GXS4 28-246): as the sequence (Q0GXS4 28-246 L147D/L154D) above, with D120L, D127L counted along it

## CC(=O)N[C@H]1[C@H](O[C@H]2[C@H](O)[C@@H](NC(C)=O)C(O)O[C@@H]2CO)O[C@H](CO)[C@@H](O[C@@H]2O[C@H](CO)[C@@H](O[C@@H]3O[C@H](CO)[C@@H](O)[C@H](O)[C@H]3NC(C)=O)[C@H](O)[C@H]2NC(C)=O)[C@@H]1O (stereo partly drawn) [CO4]
[1]; read-out: Dissociation constant (Kd)
  Kd: 150 µM

## CCCCCC/C=C\CCCCC/C=C/C(=O)N[C@H]1[C@H](O[C@H]2[C@H](O)[C@@H](NC(C)=O)[C@H](O[C@H]3[C@H](O)[C@@H](NC(C)=O)[C@H](O[C@H]4[C@H](O)[C@@H](NC(C)=O)C(O)O[C@@H]4COS(=O)(=O)O)O[C@@H]3CO)O[C@@H]2CO)O[C@H](COC(C)=O)[C@@H](O)[C@@H]1O (stereo partly drawn) [S. meliloti LCO-IV]
[2]; FIG. 4B
  affinity compared to NFP WT: approximately two times lower affinity
  association (Kon) compared to NFP WT: almost unaffected
[2]; FIGS. 16A-16C
  association rate (kon) faster than WT NFP-ECD: 4.5 fold
  dissociation rate (koff) increase compared to WT NFP-ECD: 59 fold
  lower affinity compared to WT NFP-ECD: 13 fold
[3]; FIG. 4B
  Affinity change versus NFP WT (in words): approximately two times lower affinity
  Association (Kon) change versus NFP WT (in words): almost unaffected
  Dissociation (Koff), times faster than NFP WT: approximately 15 times
[3]; FIGS. 16A-16C
  Association rate (kon), fold faster than WT NFP-ECD: 4.5 fold
  Dissociation rate (koff), fold increase compared to WT NFP-ECD: 59 fold

## OC[C@H]1O[C@H](O[C@H]2[C@H](O)[C@@H](O)[C@@H](O[C@H]3[C@H](O)[C@@H](O)[C@@H](O[C@H]4[C@H](O)[C@@H](O)[C@@H](O[C@H]5[C@H](O)[C@@H](O)[C@@H](O[C@H]6[C@H](O)[C@@H](O)C(O)O[C@@H]6CO)O[C@@H]5CO)O[C@@H]4CO)O[C@@H]3CO)O[C@@H]2CO)[C@H](O)[C@@H](O)[C@@H]1O (stereo partly drawn) [maltohexaose]
[1]
  Binding to NFP (in words): not able to bind
